# Measured values as given in patent publication US4868290A, “4'-Deoxy-3"-demethoxy-3"-methylenedesmycosin derivatives and synthetic intermediates thereof” (Toyo Jozo Kabushiki Kaisha, priority 1987, dated 1989).
# Like-named read-outs stand apart in the source and are kept apart here.
# Key:
# Format in all cases: cell-based
# [1] = test system: E. coli NIHJ JC-2; experiment: MIC, E. coli NIHJ JC-2; settings: Escherichia coli, NIHJJC2
# Source text: (§1) The minimum inhibitory concentration (MIC) of compounds (1) according to the present invention is illustrated in Table 1.
# [2] = test system: Coryne. diphtheriae P.W.8; experiment: MIC, Coryne. diphtheriae P.W.8; settings: Corynebacterium diphtheriae
# Source text: as §1
# [3] = test system: Staph. aureus Smith; experiment: MIC, Staph. aureus Smith; settings: Staphylococcus aureus
# Source text: as §1
# [4] = test system: Enterococcus faecalis 1501; experiment: MIC, Enterococcus faecalis 1501
# Source text: as §1
# [5] = test system: Staph. aureus MS353; experiment: MIC, Staph. aureus MS353; settings: Staphylococcus aureus
# Source text: as §1
# [6] = test system: Strept. pyogenes N.Y.5; experiment: MIC, Strept. pyogenes N.Y.5; settings: Streptococcus pyogenes
# Source text: as §1
# [7] = test system: Strept. agalactiae 1020; experiment: MIC, Strept. agalactiae 1020; settings: Streptococcus agalactiae
# Source text: as §1
# [8] = test system: Staph. aureus MS353C36; experiment: MIC, Staph. aureus MS353C36 (erythromycin resistant strain); settings: Staphylococcus aureus
# Source text: as §1
# [9] = test system: Staph. aureus 0127; experiment: MIC, Staph. aureus 0127; settings: Staphylococcus aureus
# Source text: as §1
# [10] = test system: Micrococcus luteus ATCC9341; experiment: MIC, Micrococcus luteus ATCC9341
# Source text: as §1
# [11] = test system: Bacillus subtilis ATCC6633; experiment: MIC, Bacillus subtilis ATCC6633
# Source text: as §1
# [12] = test system: Strept. pyogenes 1022; experiment: MIC, Strept. pyogenes 1022; settings: Streptococcus pyogenes
# Source text: as §1
# [13] = test system: Staph. aureus 0119; experiment: MIC, Staph. aureus 0119; settings: Staphylococcus aureus
# Source text: as §1
# [14] = test system: Staph. aureus MS353 AO; experiment: MIC, Staph. aureus MS353 AO; settings: Staphylococcus aureus, MS353AO
# Source text: as §1
# [15] = test system: Staph. aureus ATCC6538P; experiment: MIC, Staph. aureus ATCC6538P; settings: Staphylococcus aureus
# Source text: as §1
# [16] = test system: Staph. aureus 0126; experiment: MIC, Staph. aureus 0126; settings: Staphylococcus aureus
# Source text: as §1
# [17] = Staph. aureus Smith, read-out: MIC
# [18] = Staph. aureus MS353, read-out: MIC
# [19] = Staph. aureus 0126, read-out: MIC
compound,measurement,setting,value
"CCC1OC(=O)CC(O)C(C)C(OC2OC(C)C(O)C(N(C)C)C2O)C(C)CC(C)C(=O)/C=C/C(C)=C/C1COC1OC(C)CC(=O)C1OC (stereo not shown) [Compound 1, 4""-deoxy-3""-demethoxy-3""-oxo-19-deformyldesmycosin]",MIC,[1],> 100 µg/mL
same,MIC,[2],0.1 µg/mL
same,MIC,[3]; [17],0.78 µg/mL
same,MIC,[4],1.56 µg/mL
same,MIC,[5]; [18],0.39 µg/mL
same,MIC,[6],0.2 µg/mL
same,MIC,[7],0.39 µg/mL
same,MIC,[8],0.39 µg/mL
same,MIC,[9],> 100 µg/mL
same,MIC,[10],0.2 µg/mL
same,MIC,[11],0.1 µg/mL
same,MIC,[12],50 µg/mL
same,MIC,[13],> 100 µg/mL
same,MIC,[14],> 100 µg/mL
same,MIC,[15],0.39 µg/mL
same,MIC,[16]; [19],1.56 µg/mL
"CCC1OC(=O)CC(O)C(C)C(OC2OC(C)CC(N(C)C)C2O)C(C)CC(C)C(=O)/C=C/C(C)=C/C1COC1OC(C)C=C(OC)C1OC (stereo not shown) [Compound 2, 4',4""-dideoxy-3"",4""-di-dehydro-19-deformyldesmycosin]",MIC,[1],> 100 µg/mL
same,MIC,[2],0.2 µg/mL
same,MIC,[3]; [17],0.39 µg/mL
same,MIC,[4],1.56 µg/mL
same,MIC,[5]; [18],0.2 µg/mL
same,MIC,[6],0.2 µg/mL
same,MIC,[7],0.39 µg/mL
same,MIC,[8],0.2 µg/mL
same,MIC,[9],> 100 µg/mL
same,MIC,[10],≤ 0.05 µg/mL
same,MIC,[11],0.1 µg/mL
same,MIC,[12],> 100 µg/mL
same,MIC,[13],> 100 µg/mL
same,MIC,[14],> 100 µg/mL
same,MIC,[15],0.2 µg/mL
same,MIC,[16]; [19],6.25 µg/mL
"C=C1CC(C)OC(OCC2/C=C(C)/C=C/C(=O)C(C)CC(C)C(OC3OC(C)C(O)C(N(C)C)C3O)C(C)C(O)CC(=O)OC2CC)C1OC (stereo not shown) [Compound 3, 4""-deoxy-3""-demethoxy-3""-methylene-19-deformyldesmycosin]",MIC,[1],> 100 µg/mL
same,MIC,[2],≤ 0.05 µg/mL
same,MIC,[3]; [17],1.56 µg/mL
same,MIC,[4],0.78 µg/mL
same,MIC,[5]; [18],0.39 µg/mL
same,MIC,[6],0.78 µg/mL
same,MIC,[7],0.1 µg/mL
same,MIC,[8],0.39 µg/mL
same,MIC,[9],> 100 µg/mL
same,MIC,[10],0.1 µg/mL
same,MIC,[11],0.1 µg/mL
same,MIC,[12],50 µg/mL
same,MIC,[13],> 100 µg/mL
same,MIC,[14],> 100 µg/mL
same,MIC,[15],0.39 µg/mL
"C=C1CC(C)OC(OCC2/C=C(C)/C=C/C(=O)C(C)CC(C)C(OC3OC(C)CC(N(C)C)C3O)C(C)C(O)CC(=O)OC2CC)C1OC (stereo not shown) [Compound 4, 4',4""-di-deoxy-3""-demethoxy-3""-methylene-19-deformyldesmycosin]",MIC,[1],> 100 µg/mL
same,MIC,[2],≤ 0.05 µg/mL
same,MIC,[3]; [17],0.39 µg/mL
same,MIC,[4],0.39 µg/mL
same,MIC,[5]; [18],0.2 µg/mL
same,MIC,[6],0.1 µg/mL
same,MIC,[7],≤ 0.05 µg/mL
same,MIC,[8],0.2 µg/mL
same,MIC,[9],100 µg/mL
same,MIC,[10],≤ 0.05 µg/mL
same,MIC,[11],0.1 µg/mL
same,MIC,[12],3.13 µg/mL
same,MIC,[13],> 100 µg/mL
same,MIC,[14],> 100 µg/mL
same,MIC,[15],0.1 µg/mL
same,MIC,[16]; [19],0.78 µg/mL
"C=C1CC(C)OC(OCC2/C=C(C)/C=C/C(=O)C(C)CC(C)C(OC3OC(C)C(O)C(N(C)C)C3O)C(C)C(OC(=O)CC)CC(=O)OC2CC)C1OC (stereo not shown) [Compound 5, 4""-deoxy-3""-demethoxy-3""-methylene-3-0-propionyl-19-deformyldesmycosin]",MIC,[1],> 100 µg/mL
same,MIC,[2],0.2 µg/mL
same,MIC,[3]; [17],0.78 µg/mL
same,MIC,[4],1.56 µg/mL
same,MIC,[5]; [18],0.78 µg/mL
same,MIC,[6],0.78 µg/mL
same,MIC,[7],0.2 µg/mL
same,MIC,[8],0.78 µg/mL
same,MIC,[9],> 100 µg/mL
same,MIC,[10],0.2 µg/mL
same,MIC,[11],≤ 0.05 µg/mL
same,MIC,[12],100 µg/mL
same,MIC,[13],> 100 µg/mL
same,MIC,[14],> 100 µg/mL
same,MIC,[15],0.39 µg/mL
"C=C1CC(C)OC(OCC2/C=C(C)/C=C/C(=O)C(C)CC(C)C(OC3OC(C)C(O)C(N(C)C)C3O)C(C)C(OC(=O)N(C)C)CC(=O)OC2CC)C1OC (stereo not shown) [Compound 6, 4""-deoxy-3""-demethoxy-3""-methylene-3-0-dimethylcarbamoyl-19-deformyldesmycosin]",MIC,[1],> 100 µg/mL
same,MIC,[2],0.1 µg/mL
same,MIC,[3]; [17],1.56 µg/mL
same,MIC,[4],0.78 µg/mL
same,MIC,[5]; [18],0.39 µg/mL
same,MIC,[6],0.78 µg/mL
same,MIC,[7],0.2 µg/mL
same,MIC,[8],0.78 µg/mL
same,MIC,[9],> 100 µg/mL
same,MIC,[10],0.2 µg/mL
same,MIC,[11],0.1 µg/mL
same,MIC,[12],> 100 µg/mL
same,MIC,[13],> 100 µg/mL
same,MIC,[14],> 100 µg/mL
same,MIC,[15],0.39 µg/mL
"CCC1OC(=O)CC(O)C(C)C(OC2OC(C)C(O)C(N(C)C)C2O)C(CC=O)CC(C)C(=O)/C=C/C(C)=C/C1COC1OC(C)C(O)C(OC)C1OC (stereo not shown) [Des, Desmycosin (4'-demycarosyltylosin), reference compound]",MIC,[1],> 100 µg/mL
same,MIC,[2],0.1 µg/mL
same,MIC,[3],1.56 µg/mL
same,MIC,[4],0.78 µg/mL
same,MIC,[5]; MS353,1.56 µg/mL
same,MIC,[6],0.1 µg/mL
same,MIC,[7],0.2 µg/mL
same,MIC,[8],1.56 µg/mL
same,MIC,[9],> 100 µg/mL
same,MIC,[10],0.2 µg/mL
same,MIC,[11],0.78 µg/mL
same,MIC,[12],> 100 µg/mL
same,MIC,[13],> 100 µg/mL
same,MIC,[14],100 µg/mL
same,MIC,[15],0.78 µg/mL
same,MIC,[16]; 0126,1.56 µg/mL
